Where “and” joins values, the source holds several entries; their conditions need not be identical. Identical values can stand only once. Like-named read-outs stand apart in the source and are kept apart here.
Key:
[1] = tested on: nAChRs expressed in the pharynx of A. suum; assay: tissue or blood; format: cell-based; settings: for Emax: read-out: % change in membrane conductance (δG) normalized to the ACh δG; for maximal response (δG) of ACh in the presence of antagonist / normalized response (δG) to muscarinic agonists, control ACh = 100%: mean±SE; for normalized response (δG) to muscarinic agonists, control ACh = 100%: 100 μM, 10 s application, n=4
Method: A. suum pharyngeal dissections and electrophysiology recordings were adapted from Martin [49]. Briefly, pharynx was dissected out from the head region of the worm and mounted on Sylgard (Sigma-Aldrich Inc., USA)—lined in a double jacketed bath chamber maintained at 28°C. The muscle layer surrounding the anterior 3rd of the pharynx was preserved for anchoring. The intestine attached to the posterior end of the pharynx was used for stretching and pinning down. The preparation was continuously perfused with calcium-free Ascaris Perienteric Fluid-Ringer (calcium-free APF-Ringer) composition (mM): NaCl 23, Na-acetate 110, KCl 24, MgCl2 11, glucose 11, and HEPES 5; NaOH or acetic acid was added to adjust the pH to 7.6. […] The rate of localized perfusion was 3.5–4 ml min^−1 through a 20-gauge needle, which was placed directly above the recording region of the pharynx. […] We used 3 M potassium acetate in our micropipettes to get the final resistances of 4–7 MΩ for the voltage sensing and 0.5–1 MΩ for the current injecting electrode for current-clamp recordings. The current-injecting electrode injected hyperpolarizing step currents of −1000 nA for 500 ms at 0.3 Hz.
We constructed the sigmoidal concentration-response plots by fitting the data by nonlinear regression to determine the pEC50 and the maximal response (Rmax). Extra sum of squares F-test was used to test statistical differences between pEC50, slope, and maximal response. The significance levels were set to P<0.05.
In applications containing arecoline and pilocarpine, we used mecamylamine, a nAChR antagonist (30µM) to inhibit nAChRs and to allow only mAChR activation.

Asu-EAT-2 nAChR = Asu-EAT-2 nAChR (Ascaris suum, UniProt F1L9Y6); assay: cell-based; format: cell-based, A. suum
[2] = target: T1, Cel-EAT-2 and Cel-EAT-18c nAChR (Caenorhabditis elegans, UniProt Q9U298); assay: Two-electrode voltage-clamp of Cel-EAT-2 + Cel-EAT-18c nAChR expressed in Xenopus oocytes; format: cell-based; settings: for Emax at 100 µM: read-out: current response normalized to the control 100 μM ACh current (Imax)
T1 sequence (Q9U298 22-474): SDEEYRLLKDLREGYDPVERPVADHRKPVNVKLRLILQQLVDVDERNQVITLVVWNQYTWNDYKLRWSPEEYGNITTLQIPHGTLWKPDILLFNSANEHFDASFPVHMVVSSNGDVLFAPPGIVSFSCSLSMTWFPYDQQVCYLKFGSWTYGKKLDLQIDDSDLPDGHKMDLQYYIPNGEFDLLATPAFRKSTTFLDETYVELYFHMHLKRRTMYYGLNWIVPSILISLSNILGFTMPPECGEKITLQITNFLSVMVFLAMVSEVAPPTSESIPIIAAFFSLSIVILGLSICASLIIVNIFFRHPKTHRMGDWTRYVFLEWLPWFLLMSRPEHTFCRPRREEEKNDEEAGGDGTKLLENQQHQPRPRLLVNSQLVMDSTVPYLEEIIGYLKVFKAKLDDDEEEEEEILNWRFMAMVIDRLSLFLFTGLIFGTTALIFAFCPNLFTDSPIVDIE

[3] = tested on: A. suum muscarinic receptor; design: method as in earlier work; settings: all used at 100 µM; ref 1 Kimber M.J. et al. Int J Parasitol 39: 1215-1222 (2009); cited from earlier work
[4] = tested on: α3β4, α3β2, α4β4 and α4β2 vertebrate nAChRs; settings: read-out: IC50 of reversible channel block; cited from earlier work
[5] = target: T2, Cel-EAT-2 and Cel-EAT-18c receptor (Cel-EAT-2 nAChR) (Caenorhabditis elegans, UniProt Q9U298); assay: Two-electrode voltage-clamp of oocytes expressing Cel-EAT-2 with Cel-EAT-18c; agonist peak currents normalized to 100 uM ACh and fitted to the Hill equation.; format: cell-based, Xenopus laevis oocytes; settings: n = 6; read-out: pEC50 (mean±SEM) (converted)
T2 construct: homomeric EAT-2 co-expressed with Cel-EAT-18c in Xenopus laevis oocytes
Method: Oocyte injections and two-electrode electrophysiology recordings were performed as previously described [48].
GraphPad Prism 8.0 software (GraphPad Software Inc., USA) was used to analyze the data. […] We used One-way analysis of variance (ANOVA) and Extra sum of squares F-test to test statistical differences (statistically different if p<0.05). Tukeys’ multiple comparison was used as a post-hoc test.

[6] = read-out: current response normalized to the control 100 μM ACh current, mean±SEM, n≥5
[7] = agonist concentration-response, mean±SEM
[8] = read-out: current response normalized to the control 100 μM ACh current

Chain of Asu-EAT-2 nAChR (F1L9Y6 entry or part of it): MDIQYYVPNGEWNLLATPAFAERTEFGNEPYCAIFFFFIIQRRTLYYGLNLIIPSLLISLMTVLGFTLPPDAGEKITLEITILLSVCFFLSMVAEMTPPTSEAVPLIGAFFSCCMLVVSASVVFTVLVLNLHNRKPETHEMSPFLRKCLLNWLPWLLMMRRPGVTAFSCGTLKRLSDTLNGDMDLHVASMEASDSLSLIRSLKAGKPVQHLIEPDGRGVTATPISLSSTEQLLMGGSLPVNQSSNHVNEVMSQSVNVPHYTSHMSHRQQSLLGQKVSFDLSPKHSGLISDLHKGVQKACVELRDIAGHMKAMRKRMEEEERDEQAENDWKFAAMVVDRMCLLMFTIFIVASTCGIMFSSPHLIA
Chain of Asu-EAT-2 nAChR (F1L1D9 entry or part of it, further chain): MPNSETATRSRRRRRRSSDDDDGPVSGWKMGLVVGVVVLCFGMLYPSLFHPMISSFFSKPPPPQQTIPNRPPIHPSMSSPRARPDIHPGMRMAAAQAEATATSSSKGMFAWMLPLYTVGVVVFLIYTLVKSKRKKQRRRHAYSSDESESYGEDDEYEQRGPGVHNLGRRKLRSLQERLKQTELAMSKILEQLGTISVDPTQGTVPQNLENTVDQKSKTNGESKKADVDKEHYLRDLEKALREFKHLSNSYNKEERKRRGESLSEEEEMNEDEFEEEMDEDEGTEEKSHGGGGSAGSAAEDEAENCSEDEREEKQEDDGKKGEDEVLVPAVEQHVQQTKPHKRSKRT
T2 sequence (Q86DB4 entry or part of it, one chain of several): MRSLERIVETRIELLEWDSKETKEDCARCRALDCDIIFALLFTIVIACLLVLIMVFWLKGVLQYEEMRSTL

CC(=O)OCC[N+](C)(C)C [ACh, acetylcholine]
Emax ([1]; Ascaris suum): 100% | EC50 ([1]; Ascaris suum, concentration-conductance curve, 1-1000 μM applied for 10 s, mean±SEM, read-out: pEC50 (converted)): 10 µM | maximal response ([1]; agonist concentration-response curve): 105.3 ± 2.5 μS | Hill slope (nH) ([1]; concentration-conductance curve, mean±SEM): 1.8±0.3 | times more potent on Asu-EAT-2 nAChR compared to Cel-EAT-2 (Asu-EAT-2 nAChR): ≈ 9 times | Hill slope (nH) (Asu-EAT-2 nAChR; ACh concentration-response, mean±SEM, n=6): 3.5 ± 1.1 | Emax at 100 µM (Asu-EAT-2 nAChR; [6]): 100% | Hill slope (nH) [2, 7]: 1.9±0.3 and 1.9 ± 0.2

CO[C@H]1CC=C2CCN3CCC4=C(CC(=O)OC4)[C@]23C1 [DHβE, Dihydro-β-erythroidine]
% inhibition of 100 μM ACh membrane conductance (δG) [1]: 17.9±5.0% | maximal response (δG) of ACh in the presence of antagonist ([1]; DHβE 30 μM): 89.7±3.0 μS | mean % inhibition of ACh (100 μM) mediated currents (Asu-EAT-2 nAChR): 66±8.4% | effect on sensitivity and efficacy of the receptor for ACh [2]: not altered | Imax of ACh concentration-response in the presence of antagonist ([2]; antagonist 30 μM): 91.1±4.1%

C[N+]1(C)CCN(c2ccccc2)CC1 [DMPP]
Emax ([1]; Ascaris suum): 12 ± 2.9% | Emax (Asu-EAT-2 nAChR; [6]): 6.6 ± 1.9% | current response normalized to the control 100 μM ACh current (Imax) ([2]; agonist 100 μM, mean±SEM, n≥6): failed to respond | Emax at 100 µM ([2]; agonist 100 μM, mean±SEM, n≥6): 0%

Cc1ccc(C[N+](C)(C)C)o1 [MFI, 5-methylfurmethiodide]
normalized response (δG) to muscarinic agonists, control ACh = 100% [1]: 4.0±0.6%

C#Cc1cncc([C@@H]2CCCN2C)c1 [SIB 1508Y]
Emax at 100 µM ([2]; agonist 100 μM, mean±SEM, n≥6): 0%

c1cncc([C@@H]2CCCCN2)c1 [anabasine]
Emax at 100 µM ([2]; agonist 100 μM, mean±SEM, n≥6): 0%

COC(=O)C1=CCCN(C)C1 [arecoline]
normalized response (δG) to muscarinic agonists, control ACh = 100% ([1]; in the presence of mecamylamine 30 μM): 2.6±2.0% | response relative to ACh (rank order series of muscarinic agonists) [3]: 76%

CN1[C@@H]2CC[C@H]1C[C@@H](OC(=O)C(CO)c1ccccc1)C2 (stereo partly shown) [atropine]
IC50 [4]: 4 to 10 µM

C[N+](C)(CCOc1ccccc1)Cc1ccccc1 [bephenium]
Emax ([1]; Ascaris suum): 7.2 ± 3.5% | current response normalized to the control 100 μM ACh current (Asu-EAT-2 nAChR; mean±SEM, n≥5): failed to activate the receptor | Emax (Asu-EAT-2 nAChR; [6]): 0.1 ± 0.1% | current response normalized to the control 100 μM ACh current (Imax) ([2]; agonist 100 μM, mean±SEM, n≥6): did not activate the receptor | Emax at 100 µM ([2]; agonist 100 μM, mean±SEM, n≥6): 0%

CC(C[N+](C)(C)C)OC(N)=O (stereo not shown) [bethanechol]
response relative to ACh (rank order series of muscarinic agonists) [3]: 58%

CCCC(=O)OCC[N+](C)(C)C [butyrylcholine]
current response normalized to the control 100 μM ACh current (Imax) ([2]; agonist 100 μM, mean±SEM, n≥6): 50.0±5.0% | pEC50 ([2]; agonist concentration-response, 100 μM ACh as internal standard, mean±SEM): 3.9±0.1 | Hill slope (nH) [2, 7]: 2.8±1.8 | EC50 [5]: 126 µM

C[N+](C)(C)CCOC(N)=O [carbachol]
response relative to ACh (rank order series of muscarinic agonists) [3]: 80% | Hill slope (nH) [2, 7]: 2.1±0.3 | Emax at 100 µM ([2]; agonist 100 μM, mean±SEM, n≥6): 37 ± 3.4% | EC50 ([2]; read-out: pEC50 (converted)): 398 µM

C[N+](C)(C)CCO [choline]
Emax ([1]; Ascaris suum): 0% | Emax (Asu-EAT-2 nAChR; [8]): 0%

O=c1cccc2n1C[C@@H]1CNC[C@H]2C1 [cytisine]
Emax ([1]; Ascaris suum): 71.2 ± 5% | Emax (Asu-EAT-2 nAChR; [8]): 81 ± 5.2% | Emax at 100 µM [2]: 0%

COc1cc2c3cc1Oc1cc(ccc1O)C[C@@H]1c4c(cc(OC)c(O)c4Oc4ccc(cc4)C[C@@H]3N(C)CC2)CC[N+]1(C)C [d-TC, d-tubocurarine]
% inhibition of 100 μM ACh membrane conductance (δG) [1]: 94.6±0.2% | mode of antagonism of the pharyngeal ACh response ([1]; antagonist 10 μM, ACh pEC50 unchanged, maximal response inhibited): non-competitive antagonists | maximal response (δG) of ACh in the presence of antagonist ([1]; antagonist 10 μM): 23.0±3.0 μS | inhibition at 30 µM ([2]; read-out: reduction (inhibition) in the mean ACh response, 30 μM d-tubocurarine): ~98%

CN1C(=O)[C@]23C[C@H]4C(C)(C)[C@]5(CNc6c5ccc5c6OC=CC(C)(C)O5)C[C@@]41CN2CC[C@@]3(C)O [derquantel]
% inhibition of 100 μM ACh membrane conductance (δG) [1]: 30.6±7.0% | mean % inhibition of ACh (100 μM) mediated currents (Asu-EAT-2 nAChR): 72.0±3.4% | Imax of ACh concentration-response in the presence of antagonist ([2]; antagonist 10 μM): 68.4±2.1%

Clc1ccc(C2CC3CCC2N3)cn1 (stereo not shown) [epibatidine]
% change in membrane conductance (δG) normalized to the ACh δG ([1]; normalized to 100 μM ACh (10 s), mean±SEM, n≥4): 31.0±3.0% | Emax (Asu-EAT-2 nAChR; [6]): 77 ± 4.2% | Emax at 100 µM ([2]; agonist 100 μM, mean±SEM, n≥6): 25 ± 1.5%
